Experiments:
[1] = biological target: T1, hERG channel (Homo sapiens, UniProt Q12809); test: hERG channel inhibition assay (patch-clamp, CHOhERG cells); type: cell-based; details: for IC20: human, CHO cells stably expressing hERG (CHOhERG); for IC20 / IC50: patch-clamp, CHOhERG cells; for hERG IC20/TLR7 IC50 / hERG IC20/TLR8 IC50 / hERG IC20/TLR9 IC50: safety ratio
T1 construct: expressed in transfected cells; host or cells: CHO (Chinese hamster ovary)
Method in brief: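 Whole-cell voltage-clamp recordings used CHO cells stably expressing human hERG, with IKhERG evoked by a voltage protocol at 0.1 Hz. Increasing compound concentrations were applied, each for 3–10 min to reach steady state, and current amplitude and kinetics were expressed relative to control (100%).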

[2] = biological target: T2, CYP2C9 (Homo sapiens, UniProt P11712); test: CYP inhibition assay in human liver microsome, CYP2C9; type: in vitro ADME; details: human, human liver microsomes, probe diclofenac 5 μM, substrate diclofenac 5 μM, first value of 2C9/2D6/3A4
T2 construct: tissue BD-Gentest 452117; host or cells: human liver microsomes
T2 sequence (P11712 whole entry): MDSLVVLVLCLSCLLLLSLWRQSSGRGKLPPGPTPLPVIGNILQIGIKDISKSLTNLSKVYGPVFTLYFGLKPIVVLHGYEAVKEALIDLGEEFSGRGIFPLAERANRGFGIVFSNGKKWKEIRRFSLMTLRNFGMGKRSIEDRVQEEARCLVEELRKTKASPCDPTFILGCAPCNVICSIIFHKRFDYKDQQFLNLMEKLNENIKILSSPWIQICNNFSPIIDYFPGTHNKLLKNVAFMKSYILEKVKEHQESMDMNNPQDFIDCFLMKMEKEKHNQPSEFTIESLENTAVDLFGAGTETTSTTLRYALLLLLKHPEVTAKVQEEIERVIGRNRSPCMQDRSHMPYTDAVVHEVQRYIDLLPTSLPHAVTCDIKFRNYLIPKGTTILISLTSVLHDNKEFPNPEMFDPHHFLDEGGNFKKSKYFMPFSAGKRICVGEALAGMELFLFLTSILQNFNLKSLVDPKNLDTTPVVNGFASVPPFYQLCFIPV
Method in brief: (§1)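 Pooled human liver microsomes with a substrate for each CYP were incubated with compound at 37 °C after NADPH addition, for 5 min (CYP2D6: 10 min), then quenched with acetonitrile containing labelled metabolite standards. Metabolite/internal-standard peak area ratios were measured by RapidFire MS/MS. % inhibition was scaled between DMSO and standard-inhibitor controls.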

[3] = biological target: T3, CYP2D6 (Homo sapiens, UniProt P10635); test: CYP inhibition assay in human liver microsome, CYP2D6; type: in vitro ADME; details: human, human liver microsomes, probe dextromethorphan 5 μM, substrate dextromethorphan 5 μM, second value of 2C9/2D6/3A4
T3 construct: tissue BD-Gentest 452117; host or cells: human liver microsomes
T3 sequence (P10635 whole entry): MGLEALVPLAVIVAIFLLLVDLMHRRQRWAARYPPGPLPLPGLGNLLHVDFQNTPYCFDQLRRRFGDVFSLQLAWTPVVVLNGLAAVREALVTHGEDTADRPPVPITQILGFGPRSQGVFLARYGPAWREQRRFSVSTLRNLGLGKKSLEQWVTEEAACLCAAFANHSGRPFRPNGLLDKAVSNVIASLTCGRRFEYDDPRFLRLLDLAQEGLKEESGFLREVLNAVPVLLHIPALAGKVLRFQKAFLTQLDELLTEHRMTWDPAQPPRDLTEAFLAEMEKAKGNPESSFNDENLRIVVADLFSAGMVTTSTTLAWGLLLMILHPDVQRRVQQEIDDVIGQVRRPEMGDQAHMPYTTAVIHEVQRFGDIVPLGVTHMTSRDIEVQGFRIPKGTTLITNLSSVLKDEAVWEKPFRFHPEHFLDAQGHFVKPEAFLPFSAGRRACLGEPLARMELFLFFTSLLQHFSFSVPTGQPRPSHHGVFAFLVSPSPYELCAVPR
Method in brief: as §1

T1 sequence (Q12809 whole entry): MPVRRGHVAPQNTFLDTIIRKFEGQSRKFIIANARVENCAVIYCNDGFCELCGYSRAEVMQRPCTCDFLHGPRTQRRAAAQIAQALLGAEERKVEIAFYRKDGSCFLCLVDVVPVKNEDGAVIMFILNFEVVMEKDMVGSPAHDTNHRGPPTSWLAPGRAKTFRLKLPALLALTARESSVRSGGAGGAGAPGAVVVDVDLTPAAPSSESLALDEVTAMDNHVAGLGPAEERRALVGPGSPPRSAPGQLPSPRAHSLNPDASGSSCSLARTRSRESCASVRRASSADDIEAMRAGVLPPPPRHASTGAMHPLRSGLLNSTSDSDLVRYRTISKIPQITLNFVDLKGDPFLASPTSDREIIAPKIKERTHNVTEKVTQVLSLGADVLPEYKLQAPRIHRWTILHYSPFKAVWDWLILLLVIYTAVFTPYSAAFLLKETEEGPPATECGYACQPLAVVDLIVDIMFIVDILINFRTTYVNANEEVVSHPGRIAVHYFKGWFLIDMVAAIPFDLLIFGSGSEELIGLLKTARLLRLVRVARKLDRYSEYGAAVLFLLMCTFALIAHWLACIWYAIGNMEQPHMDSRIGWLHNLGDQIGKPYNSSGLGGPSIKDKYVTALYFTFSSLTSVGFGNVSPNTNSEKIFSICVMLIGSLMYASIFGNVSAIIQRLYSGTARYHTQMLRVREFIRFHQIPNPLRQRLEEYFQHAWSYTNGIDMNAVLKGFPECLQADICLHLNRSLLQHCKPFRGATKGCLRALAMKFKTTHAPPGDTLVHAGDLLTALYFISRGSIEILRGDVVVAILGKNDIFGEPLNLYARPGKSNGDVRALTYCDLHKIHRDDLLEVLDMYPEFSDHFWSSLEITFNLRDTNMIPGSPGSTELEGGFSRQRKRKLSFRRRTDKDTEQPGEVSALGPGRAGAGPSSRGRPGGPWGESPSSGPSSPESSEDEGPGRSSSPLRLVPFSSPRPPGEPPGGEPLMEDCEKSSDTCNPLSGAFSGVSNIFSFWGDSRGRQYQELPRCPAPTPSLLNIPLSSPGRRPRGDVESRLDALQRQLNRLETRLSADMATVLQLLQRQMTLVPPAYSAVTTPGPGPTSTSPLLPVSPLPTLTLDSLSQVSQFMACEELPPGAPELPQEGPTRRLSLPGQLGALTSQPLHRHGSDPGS

inhibition at 5 min, 10 µM [2]	inhibition at 10 min, 10 µM [3]	Structure (SMILES)	IC20 [1]	IC50 [1]	hERG IC20/TLR7 IC50 [1]	hERG IC20/TLR8 IC50 [1]	hERG IC20/TLR9 IC50 [1]
-1%	11.5%	C[C@@H]1CN(c2ccc(C#N)n3ncc(F)c23)C[C@H](CN2CCN(c3ccc(N[C@H]4CNC[C@H]4F)nc3)CC2)O1 [Example 167, 3-fluoro-4-[(2S,6R)-2-[[4-[6-[[(3S,4R)-4-fluoropyrrolidin-3-yl]amino]-3-pyridyl]piperazin-1-yl]methyl]-6-methyl-morpholin-4-yl]pyrazolo[1,5-a]pyridine-7-carbonitrile]	> 10 µM	> 20 µM	>714	>294	>217
-8%	1.5%	C[C@@H]1CN(c2ccc(C#N)n3ncc(F)c23)C[C@H](CN2CCN(c3ccc(N4C[C@H]5NCCO[C@@H]5C4)nc3)CC2)O1 [Example 168, 4-[(2S,6R)-2-[[4-[6-[(4aR,7aR)-3,4,4a,5,7,7a-hexahydro-2H-pyrrolo[3,4-b][1,4]oxazin-6-yl]-3-pyridyl]piperazin-1-yl]methyl]-6-methyl-morpholin-4-yl]-3-fluoro-pyrazolo[1,5-a]pyridine-7-carbonitrile]	8.6 µM	> 20 µM	430	150	74
2%	7.5%	C[C@@H]1CN(c2ccc(C#N)c3ncccc23)C[C@H](CN2CCN(c3cncc(N4CCNCC4)c3)CC2)O1 [Example 7, 5-[(2R,6S)-2-methyl-6-[[4-(5-piperazin-1-yl-3-pyridyl)piperazin-1-yl]methyl]morpholin-4-yl]quinoline-8-carbonitrile]	> 10 µM	> 20 µM	>294	>1111	>196
9%	-2.5%	C[C@@H]1CN(c2ccc(C#N)c3ncccc23)C[C@H](CN2CCN(c3ccnc(N4CCNCC4)n3)CC2)O1 [Example 15, 5-[(2R,6S)-2-methyl-6-[[4-(2-piperazin-1-ylpyrimidin-4-yl)piperazin-1-yl]methyl]morpholin-4-yl]quinoline-8-carbonitrile]	> 10 µM	> 20 µM	>1429	>3333	>278
